Assay results: ChEMBL document CHEMBL3046668, “Phytoene desaturase inhibition by O-(2-phenoxy)ethyl-N-aralkylcarbamates” (J Agric Food Chem, 2003)

Molecular target: 15-cis-phytoene desaturase (Synechococcus elongatus (strain PCC 7942) (Anacystis nidulans R2), UniProt P26294)
Test: Inhibition of Synechococcus PCC 7942 phytoene desaturase expressed in Escherichia coli JM101 using phytoene as substrate after 8 hr by Dixon plot analysis
Conditions: read-out: I50

Chain of 15-cis-phytoene desaturase (P26294 whole entry): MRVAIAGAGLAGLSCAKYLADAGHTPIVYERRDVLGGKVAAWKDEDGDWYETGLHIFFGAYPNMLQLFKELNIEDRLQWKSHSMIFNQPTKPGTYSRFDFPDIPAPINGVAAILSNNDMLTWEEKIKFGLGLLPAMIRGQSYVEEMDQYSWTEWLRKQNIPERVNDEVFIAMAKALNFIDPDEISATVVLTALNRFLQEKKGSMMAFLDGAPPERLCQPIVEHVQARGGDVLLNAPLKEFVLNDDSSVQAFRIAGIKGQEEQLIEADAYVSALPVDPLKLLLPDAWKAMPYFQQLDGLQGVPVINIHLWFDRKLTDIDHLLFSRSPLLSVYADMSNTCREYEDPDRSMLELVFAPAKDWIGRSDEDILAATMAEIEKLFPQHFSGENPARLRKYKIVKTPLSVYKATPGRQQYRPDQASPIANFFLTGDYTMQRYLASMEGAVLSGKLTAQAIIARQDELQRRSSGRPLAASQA

Row | Compound | IC50
1 | CCC(CSc1cccc(Cl)c1)OC(=O)NCc1ccccc1 (stereo not drawn) | 5400 nM
2 | CCC(COc1cccc(C(F)(F)F)c1)OC(=O)NCc1ccccc1 (stereo not drawn) | 13 nM
3 | CNc1cnn(-c2cccc(C(F)(F)F)c2)c(=O)c1Cl [NORFLURAZONE] | 29 nM
